Drawing on US20240287037A1, “CYCLOALKYL COMPOUNDS AND PHARMACEUTICAL COMPOSITIONS THAT MODULATE IKZF2” (Plexium, Inc., priority 2021, published 2024), this text covers EC50 and DC50 for 15 compounds.

Usually EC50 stands for the midpoint of the concentration-response curve. As usually defined, the DC50 is the midpoint of the concentration-degradation curve.

Read-outs that look alike come from different tables or passages of the source.

Test [1] addresses human E3 ligase component cereblon (CRBN) (Homo sapiens (Human), UniProt Q96SW2). The test is described as follows: Cereblon (CRBN) target engagement, NanoBRET TE Intracellular E3 Ligase Assay in transfected HEK-293T cells. Here is the method:
HEK-293T cells were harvested ca. 75% confluent with trypsin and plated (500,000 cells/well) in a 6-well tissue culture plate in 2 mL of Dulbecco's Modified Eagle Medium (DMEM)^+10% Fetal Bovine Serum (FBS) and incubated overnight at 37° C.
The NanoLue-CRBN fusion vector (Nluc-CRBN; Promega) contains the coding region of human E3 ligase component cereblon (CRBN) fused to the C-terminus of the NanoLuc luciferase coding region. A mixture of 10 ng Nluc-CRBN and 990 ng DDB1 Expression Vector (Promega) was added to 125 μL Opti-Minimum Essential Medium (Opti-MEM™; Thermo Fisher) along with 2 μL P3000 reagent (Thermo Fisher) in a 1.5 mL epppendorf tube. This solution was added to Lipofectamine 3000 transfection reagent (5 μL; Thermo Fisher) in Opti-MEM (125 μL), mixed well, and incubated for 15 minutes at room temperature. The transfection mixture was added dropwise to cells and incubated overnight at 37° C., 5% CO2. Following transfection, cells were washed once with PBS, and trypsin (250 μL) was added and incubated 30-45 see to dislodge cells. Complete media (2 mL) was added to resuspend cells to form a single cell suspension. Cells were centrifuged at 320×g for 5 min at room temperature, the supernatant was removed, and the cell pellet resuspended in Opti-MEM (3 mL; wash step repeated ×2). After final resuspension in 5 mL Opti-MEM, cells were counted and resuspended at 200,000 cells/mL in Opti-MEM.
Cereblon target engagement was monitored by Bioluminescence Resonance Energy Transfer (BRET) in transfected HEK-293T cells using the NanoBRET TE Intracellular E3 Ligase Assay (Promega). Briefly, 384-well plates (white opaque plates, Corning 3574, low binding surface) were seeded with transfected HEK-293T cells (38 μl/well). 2 μL of 10 μM CRBN tracer (diluted 1:5 in Tracer Dilution Buffer) was added to each well. Plates were centrifuged at 320×g for 1 min at room temperature. […] Plates were shaken for 2 minutes on a microplate shaker to mix compounds. Plates were centrifuged at 320×g for 1 min at room temperature, and subsequently incubated for 2 hours at 37° C.
After incubation, plates were allowed to cool to room temperature for 15 minutes. 20 μL of 3X Complete NanoBRET™ Nano-Glo® Substrate plus Inhibitor Solution (Promega, 1:166 Substrate and 1:500 dilution of Extracellular NanoLuc® Inhibitor diluted in Opti-MEM) were added to each well, Plates were incubated with shaking at room temperature for 3 minutes covered with foil. Plates were read on a CLARIOstar microplate reader (BMG LabTech), measuring at 450 nm (donor emission) and 610 nm (acceptor emission). The IC50 values were determined by regression to best fit four-parameter logistic curves using GraphPad Prism.
For orientation: Bioluminescence resonance energy transfer reports proximity on the nanometre scale.

The target of a further test is IKZF1 (Ikaros) (Homo sapiens (Human), UniProt Q13422+Q96SW2). The test is described as follows: IKZF1 reporter degradation assay (HEK 293T IKZF1-mNeonGreen reporter cell line). Format: cell-based. The conditions noted are these: HEK 293T reporter cells, 24 hour incubation. The source says:
Polycistronic plasmids were constructed for the mammalian expression of fluorescent reporter fusions of human transcription factors IKZF1 (Ikaros), IKZF2 (Helios), and IKZF3 (Aiolos). The respective protein sequences had their C-terminal end joined to a GGGGS linker repeated three times followed by mNeonGreen, P2A sequence, and mScarlet. The DNA sequences of the open reading frames are as follows:
IKZF1, IKZF2, and IKZF3 constructs were cloned into the UCOE Hygromycin expression vectors (Millipore Sigma). Reporter constructs were transfected using cationic lipid reagents into adherent HEK 293T cells and stable integrants were selected by treatment with 200 μg/mL hygromycin B. Clonal populations were obtained from the population of stable integrants either by limiting dilution or fluorescence activated cell sorting.
The clonal stable cell lines were maintained under constant 200 μg/mL hygromycin B selection while being passaged for use in the degradation assays. […] The fluorescence intensity of the IKZF1/2/3-mNeonGreen (FITC channel) and mScarlet (PE channel) reporters were routinely analyzed by flow cytometry to confirm consistent expression levels between experiments.
The IKZF1/IKZF2/IKZF3 degradation assays were carried out by harvesting the HEK 293T reporter cell lines and resuspending the cells in media formulated for reduced background fluorescence (FluoroBrite; Thermo Fisher). The respective cell lines were seeded at a density of 4000 cells/well into black-walled 384-well optical grade assay tissue culture plates. The cells were incubated overnight at 37° C. to allow for attachment to the assay plate. Dilutions of the compounds were prepared in DMSO from 10 mM compound stocks. The assay plates were treated with appropriate concentrations of the compounds by dispensing the DMSO dilutions in quadruplicate wells with an upper limit of 0.5% final DMSO.
After 24 hour incubation with the compounds, the assay plates were imaged on an ImageXpress Pico microscopy system (cells maintained at 37° C. during imaging) to obtain the fluorescent readouts. The assay plates were imaged in the FITC and Tetramethylrhodamine (TRITC) channels to obtain the mNeonGreen fluorescence intensity (reporter degradation data) and mScarlet fluorescence intensity (for cell segmentation). 293T-IKZF1 and 293T-IKZF3 reporter cell lines were imaged with exposures of 500 milliseconds (ms) for both FITC and TRITC channels, while the 293T-IKZF2 reporter cell line was imaged with exposures of 1000 ms for FITC and 1250 ms for TRITC. The resulting data was analyzed with Cell Reporter Xpress software using the 2-channel cell scoring analysis with a “percent positive” readout. The TRITC channel was selected for the “nuclei” segmentation with a threshold of 20 while the FITC channel was selected for the “Marker 1” segmentation and a threshold of 100 for the IKZF and IKZF3 reporter lines. […] The minimum segmentation width was set to 6 micrometers and the maximum segmentation width was set to 15 micrometers for all cell lines. The DC50 calculations were determined by regression to best fit four-parameter logistic curves using GraphPad Prism.

Setting [2] is: Table 3, 2 hours at 37° C., read-out: CRBN Binding EC50.
Setting [3] is: second (untitled) table after Table 3, read-out: CRBN Binding EC50.

Chain of human E3 ligase component cereblon (CRBN) (Q96SW2 whole entry): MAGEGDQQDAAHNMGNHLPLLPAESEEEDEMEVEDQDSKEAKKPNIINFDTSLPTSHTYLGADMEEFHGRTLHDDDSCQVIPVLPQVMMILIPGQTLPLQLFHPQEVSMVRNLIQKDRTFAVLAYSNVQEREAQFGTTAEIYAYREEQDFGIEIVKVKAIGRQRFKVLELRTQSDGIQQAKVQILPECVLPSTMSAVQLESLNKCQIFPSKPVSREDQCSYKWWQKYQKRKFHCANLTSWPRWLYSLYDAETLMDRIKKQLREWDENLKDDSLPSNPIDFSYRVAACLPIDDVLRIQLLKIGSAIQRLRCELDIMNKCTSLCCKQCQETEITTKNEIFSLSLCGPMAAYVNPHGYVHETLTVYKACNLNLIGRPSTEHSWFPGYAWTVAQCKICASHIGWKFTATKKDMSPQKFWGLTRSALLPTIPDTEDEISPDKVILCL
Chain of human E3 ligase component cereblon (CRBN) (Q16531 whole entry partner): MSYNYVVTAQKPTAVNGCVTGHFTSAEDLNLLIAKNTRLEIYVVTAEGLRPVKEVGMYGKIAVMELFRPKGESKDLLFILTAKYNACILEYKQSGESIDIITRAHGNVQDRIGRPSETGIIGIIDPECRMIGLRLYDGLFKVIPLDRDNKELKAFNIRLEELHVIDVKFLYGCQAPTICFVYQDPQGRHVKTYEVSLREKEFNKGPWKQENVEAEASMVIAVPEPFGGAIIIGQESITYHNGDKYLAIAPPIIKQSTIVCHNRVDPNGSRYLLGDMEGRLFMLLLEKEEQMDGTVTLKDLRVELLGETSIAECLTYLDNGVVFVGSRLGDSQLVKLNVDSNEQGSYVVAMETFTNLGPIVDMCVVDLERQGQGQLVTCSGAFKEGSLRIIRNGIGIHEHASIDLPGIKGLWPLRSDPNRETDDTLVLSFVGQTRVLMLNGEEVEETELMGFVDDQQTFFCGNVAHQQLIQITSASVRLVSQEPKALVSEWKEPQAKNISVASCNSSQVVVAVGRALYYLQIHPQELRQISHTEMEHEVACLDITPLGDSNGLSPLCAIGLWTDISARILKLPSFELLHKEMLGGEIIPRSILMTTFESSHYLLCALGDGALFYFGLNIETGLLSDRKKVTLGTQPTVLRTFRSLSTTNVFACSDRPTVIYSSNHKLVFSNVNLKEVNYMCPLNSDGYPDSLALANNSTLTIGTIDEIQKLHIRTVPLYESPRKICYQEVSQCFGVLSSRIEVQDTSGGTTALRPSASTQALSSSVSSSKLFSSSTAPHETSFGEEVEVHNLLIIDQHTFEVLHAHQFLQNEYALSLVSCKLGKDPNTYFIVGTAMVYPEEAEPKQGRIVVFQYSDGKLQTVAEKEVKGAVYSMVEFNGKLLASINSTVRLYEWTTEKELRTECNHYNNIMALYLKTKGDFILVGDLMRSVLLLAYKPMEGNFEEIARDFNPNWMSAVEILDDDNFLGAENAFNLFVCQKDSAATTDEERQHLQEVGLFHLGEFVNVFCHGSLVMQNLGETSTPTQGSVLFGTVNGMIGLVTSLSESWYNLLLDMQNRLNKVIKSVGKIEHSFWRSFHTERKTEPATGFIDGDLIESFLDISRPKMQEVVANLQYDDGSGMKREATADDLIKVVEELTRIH
Chain of IKZF1 (Ikaros) (Q13422 whole entry, the tested form may be a part): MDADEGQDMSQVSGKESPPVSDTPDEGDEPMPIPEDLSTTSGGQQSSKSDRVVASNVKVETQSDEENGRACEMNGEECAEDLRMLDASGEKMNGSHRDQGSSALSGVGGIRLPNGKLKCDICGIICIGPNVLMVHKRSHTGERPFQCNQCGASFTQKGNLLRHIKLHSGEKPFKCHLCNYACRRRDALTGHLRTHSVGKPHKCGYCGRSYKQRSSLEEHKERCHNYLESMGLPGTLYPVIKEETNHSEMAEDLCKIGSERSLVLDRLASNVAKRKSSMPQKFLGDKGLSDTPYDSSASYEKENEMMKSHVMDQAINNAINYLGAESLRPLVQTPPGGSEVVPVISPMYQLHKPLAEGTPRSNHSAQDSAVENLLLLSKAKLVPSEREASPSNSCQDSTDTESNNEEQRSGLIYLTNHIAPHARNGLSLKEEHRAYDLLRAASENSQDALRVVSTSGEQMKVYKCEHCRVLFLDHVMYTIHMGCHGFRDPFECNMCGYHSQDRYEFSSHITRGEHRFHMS
Chain of IKZF1 (Ikaros) (Q96SW2 whole entry, the tested form may be a part): as the sequence (Q96SW2 whole entry) above
Chain of IKZF1 (Ikaros) (Q16531 whole entry partner, the tested form may be a part): as the sequence (Q16531 whole entry partner) above

Regarding `O=C1CCC(N2Cc3cc(O[C@H]4CCCC[C@@H]4N4CC(C5CC(F)(F)C5)C4)ccc3C2=O)C(=O)N1` (stereo partly drawn) [Compound 18, 3-(5-(((1S,2S)-2-(3-(3,3-difluorocyclobutyl)azetidin-1-yl)cyclohexyl)oxy)-1-oxoisoindolin-2-yl)piperidine-2,6-dione], the EC50 in test [1] (setting [2]) and in test [1] (setting [3]) was 12 nM each time. This compound showed a DC50 on IKZF1 (Ikaros) of more than 30000 nM.

`O=C1CCC(N2Cc3c(ccc(O[C@H]4CCCC[C@@H]4N4CC(C5CC5)C4)c3F)C2=O)C(=O)N1` (stereo partly drawn) [Compound 24, 3-(5-(((1S,2S)-2-(3-cyclopropylazetidin-1-yl)cyclohexyl)oxy)-4-fluoro-1-oxoisoindolin-2-yl)piperidine-2,6-dione]: the EC50 in test [1] (setting [2]) and in test [1] (setting [3]) was 49 nM in each case. At IKZF1 (Ikaros), this compound yielded a DC50 of more than 30000 nM.

For the compound `O=C1CCC(N2Cc3cc(O[C@H]4CCCC[C@@H]4N4CC(C5CCC(F)(F)CC5)C4)ccc3C2=O)C(=O)N1` (stereo partly drawn) [Compound 2, 3-(5-(((1S,2S)-2-(3-(4,4-difluorocyclohexyl)azetidin-1-yl)cyclohexyl)oxy)-1-oxoisoindolin-2-yl)piperidine-2,6-dione], the EC50 in test [1] (setting [2]) and in test [1] (setting [3]) was 2 nM throughout. The DC50 on IKZF1 (Ikaros) is more than 30000 nM.

Regarding `CC(C)OC1CCC(C2CN([C@H]3CCCC[C@@H]3Oc3ccc4c(c3)CN(C3CCC(=O)NC3=O)C4=O)C2)CC1` (stereo partly drawn) [Compound 16, 3-(5-(((1S,2S)-2-(3-((cis)-4-isopropoxycyclohexyl)azetidin-1-yl)cyclohexyl)oxy)-1-oxoisoindolin-2-yl)piperidine-2,6-dione], the EC50 in test [1] (setting [2]) and in test [1] (setting [3]) was 2 nM each time. The same compound had a DC50 on IKZF1 (Ikaros) of more than 30000 nM.

On to `O=C1CCC(N2Cc3cc(O[C@H]4CCCC[C@@H]4N4CC(C5CC5)C4)c(F)cc3C2=O)C(=O)N1` (stereo partly drawn) [Compound 26, 3-(5-(((1S,2S)-2-(3-cyclopropylazetidin-1-yl)cyclohexyl)oxy)-6-fluoro-1-oxoisoindolin-2-yl)piperidine-2,6-dione], for which the EC50 in test [1] (setting [2]) and in test [1] (setting [3]) was 16 nM throughout. Moreover, at IKZF1 (Ikaros), the DC50 is more than 30000 nM.

Regarding `O=C1CCC(N2Cc3cc(O[C@H]4CCC[C@@H]4N4CC(C5CCC(F)(F)CC5)C4)ccc3C2=O)C(=O)N1` (stereo partly drawn) [Compound 13, 3-(5-(((1S,2S)-2-(3-(4,4-difluorocyclohexyl)azetidin-1-yl)cyclopentyl)oxy)-1-oxoisoindolin-2-yl)piperidine-2,6-dione], the EC50 in test [1] (setting [2]) and in test [1] (setting [3]) was 5 nM in each case. Besides, on IKZF1 (Ikaros), the DC50 was more than 30000 nM.

With `O=C1CCC(N2Cc3cc(O[C@H]4CCCC[C@@H]4N4CC(C5CCC5)C4)ccc3C2=O)C(=O)N1` (stereo partly drawn) [Compound 5, 3-(5-(((1S,2S)-2-(3-cyclobutylazetidin-1-yl)cyclohexyl)oxy)-1-oxoisoindolin-2-yl)piperidine-2,6-dione], the EC50 in test [1] (setting [2]) and in test [1] (setting [3]) was 9 nM throughout. At IKZF1 (Ikaros), this compound registered a DC50 of more than 30000 nM.

For `O=C1CCC(N2Cc3cc(O[C@H]4CCCC[C@@H]4N4CC(C5CCC(OC(F)F)CC5)C4)ccc3C2=O)C(=O)N1` (stereo partly drawn) [Compound 21, 3-(5-(((1S,2S)-2-(3-(4-(difluoromethoxy)cyclohexyl)azetidin-1-yl)cyclohexyl)oxy)-1-oxoisoindolin-2-yl)piperidine-2,6-dione], the EC50 in test [1] (setting [2]) and in test [1] (setting [3]) was 1 nM in each case. At IKZF1 (Ikaros), this compound showed a DC50 of more than 30000 nM.

For the compound `CC(C)OC1CCC(C2CN([C@H]3CCCC[C@@H]3Oc3ccc4c(c3)CN(C3CCC(=O)NC3=O)C4=O)C2)CC1` (stereo partly drawn) [Compound 17, 3-(5-(((1S,2S)-2-(3-((trans)-4-isopropoxycyclohexyl)azetidin-1-yl)cyclohexyl)oxy)-1-oxoisoindolin-2-yl)piperidine-2,6-dione], the EC50 in test [1] (setting [2]) and in test [1] (setting [3]) was 1 nM throughout. At IKZF1 (Ikaros), the DC50 is more than 30000 nM.

For `O=C1CCC(N2Cc3cc(O[C@H]4CCC[C@@H]4N4CC(C5CC5)C4)ccc3C2=O)C(=O)N1` (stereo partly drawn) [Compound 22, 3-(5-(((1S,2S)-2-(3-cyclopropylazetidin-1-yl)cyclopentyl)oxy)-1-oxoisoindolin-2-yl)piperidine-2,6-dione], the EC50 in test [1] (setting [2]) and in test [1] (setting [3]) was 22 nM in each case. In addition, the DC50 on IKZF1 (Ikaros) was more than 30000 nM.

With `O=C1CCC(N2Cc3cc(O[C@H]4CCCC[C@@H]4N4CC(C5CCCCC5)C4)ccc3C2=O)C(=O)N1` (stereo partly drawn) [Compound 1, 3-(5-(((1S,2S)-2-(3-cyclohexylazetidin-1-yl)cyclohexyl)oxy)-1-oxoisoindolin-2-yl)piperidine-2,6-dione], the EC50 in test [1] (setting [2]) and in test [1] (setting [3]) was 3 nM in each case. The compound also had a DC50 on IKZF1 (Ikaros) of more than 30000 nM.

On to `O=C1CCC(N2Cc3cc(O[C@H]4CCCC[C@@H]4N4CC(C5CCCC(F)(F)C5)C4)ccc3C2=O)C(=O)N1` (stereo partly drawn) [Compound 20, 3-(5-(((1S,2S)-2-(3-(3,3-difluorocyclohexyl)azetidin-1-yl)cyclohexyl)oxy)-1-oxoisoindolin-2-yl)piperidine-2,6-dione], for which the EC50 in test [1] (setting [2]) and in test [1] (setting [3]) was 4 nM throughout. Also, on IKZF1 (Ikaros), the DC50 was more than 30000 nM.

In the case of `O=C1CCC(N2Cc3cc(O[C@H]4CCCC[C@@H]4N4CC(C5CCC5)C4)c(F)cc3C2=O)C(=O)N1` (stereo partly drawn) [Compound 27, 3-(5-(((1S,2S)-2-(3-cyclobutylazetidin-1-yl)cyclohexyl)oxy)-6-fluoro-1-oxoisoindolin-2-yl)piperidine-2,6-dione], the EC50 in test [1] (setting [2]) and in test [1] (setting [3]) was 18 nM throughout. Also, at IKZF1 (Ikaros), the DC50 is more than 30000 nM.

`O=C1CCC(N2Cc3cc(O[C@H]4CCCC[C@@H]4N4CC(C5CC5)C4)ccc3C2=O)C(=O)N1` (stereo partly drawn) [Compound 3, 3-(5-(((1S,2S)-2-(3-cyclopropylazetidin-1-yl)cyclohexyl)oxy)-1-oxoisoindolin-2-yl)piperidine-2,6-dione]: the EC50 in test [1] (setting [2]) and in test [1] (setting [3]) was 9 nM in each case. The DC50 at IKZF1 (Ikaros) was more than 30000 nM.

As for `CCOC1CCC(C2CN([C@H]3CCCC[C@@H]3Oc3ccc4c(c3)CN(C3CCC(=O)NC3=O)C4=O)C2)CC1` (stereo partly drawn) [Compound 19, 3-(5-(((1S,2S)-2-(3-(4-ethoxycyclohexyl)azetidin-1-yl)cyclohexyl)oxy)-1-oxoisoindolin-2-yl)piperidine-2,6-dione], the EC50 in test [1] (setting [2]) and in test [1] (setting [3]) was 1 nM in each case. Moreover, the DC50 at IKZF1 (Ikaros) is more than 30000 nM.
